Literature values as cited in patent publication US5043321A, “Adrenocorticotropin release inhibiting factor” (Center for Innovative Technology, priority 1988, dated 1991).
No end group written: not given here.

How the values were obtained:
[1] = system: hemorrhage induced corticosterone secretion; conditions: Hattori et al
[2] = system: rat anterior pituitary gland; conditions: Okajima et al

Substance	effect on hemorrhage induced corticosterone secretion in vivo [1]	effect on plasma ACTH ([1]; preliminary study)	most effective concentration for inhibition of ACTH secretion [2] [nM]	effect on CRF induced ACTH secretion ([2]; rat anterior pituitary gland in vitro)
alpha-hANP: alpha-hANP (presumably ANF[1-28]) used by Hattori et al (SLRRSSCFGGRMDRIGAQSGLGCNSFRY; ends and bridges not checked; cysteine pairing not given here; UniProt P01160 124-151, looked up)	no effect	inhibition of plasma ACTH that was not dose dependent		
delta sleep inducing peptide [DSIP]			10	inhibits CRF induced ACTH secretion
